Legend:
CalS13 = CalS13 (Micromonospora echinospora, UniProt Q8KND8); assay: X-ray crystal structure, […] Å; assay type: binding
WecE = WecE (Escherichia coli, UniProt P27833); assay: X-ray crystal structure, […] Å; assay type: binding; details: covalent external aldimine with PLP; eight subunits
Chain of WecE (P27833 whole entry): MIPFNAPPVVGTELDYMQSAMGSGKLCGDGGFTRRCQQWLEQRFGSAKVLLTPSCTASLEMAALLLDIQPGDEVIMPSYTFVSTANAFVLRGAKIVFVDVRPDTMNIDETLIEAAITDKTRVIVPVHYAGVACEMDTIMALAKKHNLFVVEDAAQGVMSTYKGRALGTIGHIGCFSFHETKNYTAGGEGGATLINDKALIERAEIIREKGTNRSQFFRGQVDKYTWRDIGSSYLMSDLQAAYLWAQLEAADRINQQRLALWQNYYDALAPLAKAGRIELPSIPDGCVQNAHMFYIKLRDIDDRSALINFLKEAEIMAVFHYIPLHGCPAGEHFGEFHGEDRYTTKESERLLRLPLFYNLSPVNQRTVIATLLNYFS

SMILES: Cc1ncc(COP(=O)(O)O)c(C=O)c1O [PLP]
- X-ray crystal structure, 2.47 Å (CalS13; covalent internal aldimine with Lys202, all six subunits): All six subunits contained PLP as internal aldimines of Lys202

SMILES: Cc1cn([C@H]2C[C@H](O)[C@@H](COP(=O)(O)OP(=O)(O)O[C@H]3O[C@H](C)[C@H](N)[C@H](O)[C@H]3O)O2)c(=O)[nH]c1=O [TDP-4-amino-4,6-dideoxy-α-D-galactose]
- X-ray crystal structure, 2.24 Å (WecE): WecE cocrystallization led to WecE/PLP/TDP-4-amino-4,6-dideoxygalactose ternary complexes

SMILES: Cc1cn([C@H]2C[C@H](O)[C@@H](COP(=O)(O)OP(=O)(O)O)O2)c(=O)[nH]c1=O [TDP]
- X-ray crystal structure, 2.47 Å (CalS13; with PLP internal aldimine, three of six subunits): three had electron density for just TDP

From article PMC4575645 (ACS chemical biology, 2015)
